US20090124690A1, “Generation of Combinatorial Synthetic Libraries and Screening for Novel Proadhesins and Nonadhesins” (priority 2000, published 2009)

Tests used:
Colletotrichum acutatum = experiment: Petri dish assay for activity against Colletotrichum acutatum (spore adhesion); conditions: for Inhibition of adhesion of spores to polystyrene surfaces, Colletotrichum acutatum: compound tested at 0.5%
[1] = test system: MRSA Staphylococcus aureus; experiment: Anti-adhesion assay, MRSA Staphylococcus aureus; assay type: cell-based; conditions: for ICMAX / ICMAX: level of maximal inhibition (ICxx): anti-adhesion, MRSA S. aureus, cell reads 'ICxx - concentration'
P. aerug. = experiment: Library screening against P. aeruginosa (IC50); assay type: cell-based, Pseudomonas aeruginosa; conditions: Table 3
Dengue 2 = experiment: Anti-infection (adhesion) of viruses: Dengue 2, focus forming unit (FFU) reduction assay on LLCMK-2 cells; assay type: cell-based, Dengue virus (DENV-2 strain NG-2); conditions: FIG. 6
Description: (§1) DENV-1 strain HI-1, DENV-2 strain NG-2, DENV-3 strain H-78, and DENV-4 strain H-42 were obtained from R. Tesh at the World Health Organization Arbovirus Reference Laboratory at the University of Texas at Galveston. Viruses were propagated in the African green monkey kidney epithelial cell line, LLCMK-2, a gift of K. Olsen at Colorado State University. LLCMK-2 cells were grown in DMEM with 10% (v/v) FBS, 2 mM Glutamax, 100 U/ml penicillin G, 100 μg/ml streptomycin and 0.25 μg/ml amphotericin B, at 37° C. with 5% (V/V) CO2.
LLCMK-2 target cells were seeded at a density of 1×10^5 cells in each well of a 6-well plate 24 h prior to infection. Approximately 200 FFU of virus were incubated with or without chemistries in serum-free DMEM for 1 h at rt. […] Virus foci were detected using supernatant from mouse anti-DENV hybridoma E60 (obtained from M. Diamond at Washington University) followed by horseradish peroxidase-conjugated goat anti-mouse immunoglobulin (Pierce, Rockford, Ill.) and developed using AEC chromogen substrate (Dako, Carpinteria, Calif.). Results were expressed as the average of at least two independent trials with three replicates in each trial.

Dengue virus = experiment: Direct binding assay (DART TOF-MS), Dengue virus; conditions: FIG. 6
Source text: The virus particles were collected and fixed in 100% (USP) ethanol prior to DART TOF-MS analysis. The closed end of a borosilicate glass capillary tube was immersed in the virion solution and passed through the DART He plasma to obtain mass spectra of virion surface-bound chemistries. […] The same conditions were used to assess the binding of composition here to bacterial species. • 1. […] Viruses and Cells
as §1

[2] = test system: Staphylococcus epidermidis; experiment: 96-well plate assay for activity against Staphylococcus epidermidis (adhesion, Syto 13); conditions: compound tested at 0.5%

| SMILES | Inhibition of adhesion of spores to polystyrene surfaces, Colletotrichum acutatum (Colletotrichum acutatum) | ICMAX [1] | ICMAX: level of maximal inhibition (ICxx) [1] | other results |
| --- | --- | --- | --- | --- |
| CNC(=O)C(Cc1ccc(OS(=O)(=O)C(F)(F)F)cc1)NC(=O)COCC(=O)Nc1cccc(OS(=O)(=O)C(F)(F)F)c1 (stereo not drawn) [Compound B02] | −16% |  |  |  |
| CCN(CCOC(=O)/C=C/c1ccc(O)cc1)Cc1cc(Cl)ccc1O [Compound I] |  | 120 µM | IC70 | IC50 (% wt/vol) C. acut. (Colletotrichum acutatum; Table 3): 0.004 % wt/vol; IC50 ([1]; Staphylococcus aureus, MRSA): 82 µM; IC50 (% wt/vol) P. aerug. (P. aerug.): 0.001 % wt/vol; Dengue infection when compound is bound (Dengue 2): inhibited; direct binding to Dengue virus (DART-MS) (Dengue virus): direct binding |
| O=C(O)/C=C/c1ccc(OS(=O)(=O)O)cc1 [Zosteric Acid, reference compound] |  | 90 µM | IC100 |  |
| CNC(=O)C(Cc1ccc(OS(C)(=O)=O)cc1)NC(=O)COCC(=O)Nc1cccc(OS(C)(=O)=O)c1 (stereo not drawn) [Compound A02] | −12% |  |  | Inhibition of adhesion of cells to polystyrene surfaces, Staphylococcus epidermidis [2]: 22% |
